# From PubChem BioAssay AID743469 (Vanderbilt Specialized Chemistry Center, 2014)
# Active and inactive are the calls of the source. How the calls were made is not given here.
# Target: Histone-lysine N-methyltransferase 2A (Homo sapiens) (UniProt Q03164)
# Experiment: menin-MLL interaction inhibitors, SAR follow-up, biochemical, fluorescence polarization (AID 743469)
# Details: menin + fluorescein MLL peptide
# Chain of Histone-lysine N-methyltransferase 2A (Homo sapiens) (Q03164 whole entry, looked up): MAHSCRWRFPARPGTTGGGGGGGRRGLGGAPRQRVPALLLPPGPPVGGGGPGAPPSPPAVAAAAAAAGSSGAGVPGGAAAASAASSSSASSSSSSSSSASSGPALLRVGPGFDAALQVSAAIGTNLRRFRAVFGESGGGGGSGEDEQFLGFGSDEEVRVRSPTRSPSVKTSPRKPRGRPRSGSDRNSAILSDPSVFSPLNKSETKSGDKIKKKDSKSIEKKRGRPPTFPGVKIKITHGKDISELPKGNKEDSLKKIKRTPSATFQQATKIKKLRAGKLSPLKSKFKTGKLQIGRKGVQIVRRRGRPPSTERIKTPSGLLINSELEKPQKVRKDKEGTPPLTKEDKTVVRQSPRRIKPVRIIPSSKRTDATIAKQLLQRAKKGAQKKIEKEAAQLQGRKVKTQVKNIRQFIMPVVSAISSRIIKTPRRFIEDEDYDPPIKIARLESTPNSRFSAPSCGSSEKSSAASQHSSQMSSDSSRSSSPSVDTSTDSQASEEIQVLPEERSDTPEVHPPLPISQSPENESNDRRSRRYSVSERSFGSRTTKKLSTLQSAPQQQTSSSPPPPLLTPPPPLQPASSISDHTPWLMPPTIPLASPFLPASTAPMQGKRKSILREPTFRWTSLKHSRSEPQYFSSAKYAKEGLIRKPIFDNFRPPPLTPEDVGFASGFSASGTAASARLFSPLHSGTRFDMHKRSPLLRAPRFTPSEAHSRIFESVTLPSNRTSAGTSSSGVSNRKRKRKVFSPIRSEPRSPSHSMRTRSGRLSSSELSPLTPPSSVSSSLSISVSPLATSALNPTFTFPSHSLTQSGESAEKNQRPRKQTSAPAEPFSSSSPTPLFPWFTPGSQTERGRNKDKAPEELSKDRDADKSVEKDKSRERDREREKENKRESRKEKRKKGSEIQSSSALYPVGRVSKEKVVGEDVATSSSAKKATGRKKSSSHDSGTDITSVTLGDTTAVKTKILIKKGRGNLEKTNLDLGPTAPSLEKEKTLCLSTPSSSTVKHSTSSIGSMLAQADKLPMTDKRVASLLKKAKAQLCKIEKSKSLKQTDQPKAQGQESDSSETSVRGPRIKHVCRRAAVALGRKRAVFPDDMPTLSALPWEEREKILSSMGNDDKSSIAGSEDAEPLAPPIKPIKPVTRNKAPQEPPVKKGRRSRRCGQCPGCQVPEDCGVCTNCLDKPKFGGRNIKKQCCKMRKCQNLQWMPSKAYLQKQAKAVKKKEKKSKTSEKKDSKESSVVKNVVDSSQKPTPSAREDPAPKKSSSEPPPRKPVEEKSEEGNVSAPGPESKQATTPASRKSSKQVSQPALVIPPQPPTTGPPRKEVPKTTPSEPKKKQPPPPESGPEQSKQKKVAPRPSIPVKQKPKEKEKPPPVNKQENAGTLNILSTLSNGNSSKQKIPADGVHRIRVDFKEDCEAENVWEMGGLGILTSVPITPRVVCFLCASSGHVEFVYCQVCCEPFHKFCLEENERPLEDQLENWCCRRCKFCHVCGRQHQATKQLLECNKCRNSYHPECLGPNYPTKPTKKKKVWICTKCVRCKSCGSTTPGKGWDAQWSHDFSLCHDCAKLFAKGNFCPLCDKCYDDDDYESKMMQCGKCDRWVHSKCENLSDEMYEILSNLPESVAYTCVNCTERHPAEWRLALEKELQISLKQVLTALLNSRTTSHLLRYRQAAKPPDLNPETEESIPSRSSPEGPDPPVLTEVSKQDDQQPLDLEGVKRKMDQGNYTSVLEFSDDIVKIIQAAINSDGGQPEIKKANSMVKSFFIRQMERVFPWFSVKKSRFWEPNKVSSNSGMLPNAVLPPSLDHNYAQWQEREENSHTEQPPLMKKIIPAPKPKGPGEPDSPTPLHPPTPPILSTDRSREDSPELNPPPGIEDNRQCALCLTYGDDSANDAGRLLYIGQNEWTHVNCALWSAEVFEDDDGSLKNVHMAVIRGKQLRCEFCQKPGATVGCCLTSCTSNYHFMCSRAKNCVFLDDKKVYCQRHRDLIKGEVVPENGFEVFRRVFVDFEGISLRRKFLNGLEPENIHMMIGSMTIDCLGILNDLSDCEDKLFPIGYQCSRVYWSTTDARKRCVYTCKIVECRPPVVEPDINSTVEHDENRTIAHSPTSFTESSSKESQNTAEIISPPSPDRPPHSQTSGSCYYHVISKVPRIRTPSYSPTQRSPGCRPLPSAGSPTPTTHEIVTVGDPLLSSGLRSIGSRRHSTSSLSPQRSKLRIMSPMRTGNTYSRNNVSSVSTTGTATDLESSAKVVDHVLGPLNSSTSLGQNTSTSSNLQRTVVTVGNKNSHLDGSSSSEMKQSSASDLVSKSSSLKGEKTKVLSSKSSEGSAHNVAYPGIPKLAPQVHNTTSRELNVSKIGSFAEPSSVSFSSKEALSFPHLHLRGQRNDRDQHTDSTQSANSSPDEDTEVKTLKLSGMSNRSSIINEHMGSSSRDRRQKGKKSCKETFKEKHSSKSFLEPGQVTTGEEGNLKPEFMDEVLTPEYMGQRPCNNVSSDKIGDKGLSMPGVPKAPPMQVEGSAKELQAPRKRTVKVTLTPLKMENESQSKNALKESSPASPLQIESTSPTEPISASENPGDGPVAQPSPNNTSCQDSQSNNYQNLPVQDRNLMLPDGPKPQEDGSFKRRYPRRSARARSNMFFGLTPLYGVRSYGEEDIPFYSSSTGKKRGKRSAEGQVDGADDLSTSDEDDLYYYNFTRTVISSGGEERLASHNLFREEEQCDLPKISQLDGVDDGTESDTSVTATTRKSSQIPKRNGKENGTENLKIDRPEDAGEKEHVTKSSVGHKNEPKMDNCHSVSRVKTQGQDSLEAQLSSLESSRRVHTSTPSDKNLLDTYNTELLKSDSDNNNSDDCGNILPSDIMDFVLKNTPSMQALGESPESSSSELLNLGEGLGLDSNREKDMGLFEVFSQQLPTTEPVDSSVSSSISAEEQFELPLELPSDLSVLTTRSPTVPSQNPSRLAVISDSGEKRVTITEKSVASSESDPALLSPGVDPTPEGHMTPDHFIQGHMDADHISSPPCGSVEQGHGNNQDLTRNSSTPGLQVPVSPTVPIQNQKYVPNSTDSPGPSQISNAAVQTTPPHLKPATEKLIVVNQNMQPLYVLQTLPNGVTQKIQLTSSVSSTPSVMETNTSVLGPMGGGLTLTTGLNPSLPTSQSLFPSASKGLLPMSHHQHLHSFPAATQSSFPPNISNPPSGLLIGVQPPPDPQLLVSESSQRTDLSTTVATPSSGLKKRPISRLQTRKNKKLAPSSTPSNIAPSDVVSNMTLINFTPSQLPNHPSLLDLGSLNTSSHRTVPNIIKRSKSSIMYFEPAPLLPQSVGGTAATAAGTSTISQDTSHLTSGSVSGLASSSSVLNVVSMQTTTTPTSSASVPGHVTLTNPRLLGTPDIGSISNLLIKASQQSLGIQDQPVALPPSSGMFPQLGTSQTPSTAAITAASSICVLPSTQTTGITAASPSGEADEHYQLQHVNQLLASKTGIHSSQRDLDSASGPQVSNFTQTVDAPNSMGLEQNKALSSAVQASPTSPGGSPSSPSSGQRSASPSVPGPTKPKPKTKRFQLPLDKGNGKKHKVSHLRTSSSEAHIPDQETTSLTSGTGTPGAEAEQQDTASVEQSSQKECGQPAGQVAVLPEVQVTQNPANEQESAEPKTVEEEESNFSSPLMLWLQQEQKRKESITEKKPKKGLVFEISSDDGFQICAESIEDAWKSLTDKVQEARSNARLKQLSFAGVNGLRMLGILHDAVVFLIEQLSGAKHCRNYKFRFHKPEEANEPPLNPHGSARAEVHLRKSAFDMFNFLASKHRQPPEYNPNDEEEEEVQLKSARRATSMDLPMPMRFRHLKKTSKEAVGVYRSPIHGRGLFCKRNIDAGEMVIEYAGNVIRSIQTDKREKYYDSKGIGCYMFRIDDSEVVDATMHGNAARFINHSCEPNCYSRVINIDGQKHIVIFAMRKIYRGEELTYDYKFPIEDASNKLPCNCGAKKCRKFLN
SMILES,IC50,outcome
N#Cc1ccc(OCCCN2CCC(C(O)(c3cccnc3)C3CCCC3)CC2)cc1 (stereo not given),0.709 µM,–
N#Cc1ccc(OCCCN2CCC(C(O)(c3ccccc3)C3CCCC3)CC2)nc1 (stereo not given),–,inactive
NS(=O)(=O)c1ccc(OCCCN2CCC(C(O)(c3cccc(F)c3)c3nccs3)CC2)cc1 (stereo not given),0.0437 µM,–

# Further lines, results first:
IC50,outcome,SMILES
0.0437 µM,–,N#Cc1ccc(OCCCN2CCC(C(O)(c3cc(F)cc(F)c3)c3ccccn3)CC2)cc1 (stereo not given)
0.0197 µM,–,N#Cc1ccc(OCCCN2CCC(C(O)(c3cccc(F)c3)c3nccs3)CC2)cc1 (stereo not given)
